Test results published in patent US20140363898A1, “METHOD FOR THE IDENTIFICATION OF BETA-SHEET AGGREGATED PROTEIN LIGANDS” (Hoffmann-La Roche Inc., priority 2011, published 2014).

Legend:
[1] = target: T1, aggregated alpha-synuclein (human recombinant) (Homo sapiens, UniProt P37840); assay: Thiazine-red fluorescence displacement assay on aggregated alpha-synuclein; settings: displacement of Thiazin-red at the high affinity binding site; compound 0.3 nM to 10000 nM; 30 min room temperature; average of different experiments; read-out: aggr. α-syn IC50
T1 construct: made in house; host or cells: E. coli
Method: Human recombinant-Alpha-synuclein-purified from E. coli is aggregated with Arachidonic Acid (100 μM) in Tris 10 mM pH 8, for 5 days at 37° C., under shaking at 150 rpm.
Thiazin-red will be added at the concentration corresponding to the Kd to the respective aggregated protein binding site, to induce a fluorescent signal that can be inhibited by the addition of a displacer compound
In parallel, auto fluorescence of the compound is measured together with the aggregated proteins, but without Thiazin-red. As negative control, ligand and aggregated protein is used and as positive control, Thiazin-red, reference compound with known activity and aggregated protein is used.
Assay is performed in Perkin Elmer OptiPlate 384, black, 45 ul assay volume, assay buffer is DPBS no CaCl2 no MgCl2 (GIBCO N. 14020). Tested compounds are diluted in DMSO and 2 μl is added to the assay (5% DMSO final). Assay is started by the addition of the aggregated protein (competitive condition). Plates are shortly shacked (1 min with Sterico variomag teleshake) and incubated for 30 min at room temperature. Measurement are done with En:Vision (Perkin Elmer), at Excitation 531 nm/Emission 595 nm.

[2] = target: T2, aggregated Tau (recombinant human microtubule associated protein Tau) (Homo sapiens, UniProt P10636); assay: Thiazine-red fluorescence displacement assay on aggregated tau; settings: displacement of Thiazin-red at the high affinity binding site; compound 0.3 nM to 10000 nM; 30 min room temperature; average of different experiments; read-out: aggr. TAU IC50
T2 construct: made in house; host or cells: E. coli
T2 sequence (P10636 1-441 isoform P10636-8): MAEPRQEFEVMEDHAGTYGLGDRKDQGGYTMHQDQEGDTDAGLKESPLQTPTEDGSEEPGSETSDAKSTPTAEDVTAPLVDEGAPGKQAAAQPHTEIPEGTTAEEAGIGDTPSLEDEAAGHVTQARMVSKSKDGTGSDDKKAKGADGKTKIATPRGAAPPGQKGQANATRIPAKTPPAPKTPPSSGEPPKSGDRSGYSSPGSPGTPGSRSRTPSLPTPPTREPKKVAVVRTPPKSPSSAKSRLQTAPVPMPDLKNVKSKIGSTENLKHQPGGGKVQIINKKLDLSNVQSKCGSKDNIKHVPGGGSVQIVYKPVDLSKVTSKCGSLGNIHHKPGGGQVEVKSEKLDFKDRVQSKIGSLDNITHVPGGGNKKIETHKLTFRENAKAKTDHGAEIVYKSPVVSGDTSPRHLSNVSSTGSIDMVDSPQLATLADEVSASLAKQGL
Method: (§1) Recombinant human-microtubule associated protein Tau purified from E. coli is aggregated at a concentration of 5 μM with Arachidonic Acid (100 μM) in Tris 10 mM pH8, 24h at 37° C. Synthetic Aβ40 is aggregated with Arachidonic Acid (100 μM) in Tris 10 mM pH8, for three days at 37° C., under shaking at 150 rpm. […] In parallel, auto fluorescence of the compound is measured together with the aggregated proteins, but without Thiazin-red. As negative control, ligand and aggregated protein is used and as positive control, Thiazin-red, reference compound with known activity and aggregated protein is used. Assay is performed in Perkin Elmer OptiPlate 384, black, 45 ul assay volume, assay buffer is DPBS no CaCl2 no MgCl2 (GIBCO N. 14020). Tested compounds are diluted in DMSO and 2 μl is added to the assay (5% DMSO final). Assay is started by the addition of the aggregated protein (competitive condition). Plates are shortly shacked (1 min with Sterico variomag teleshake) and incubated for 30 min at room temperature. Measurement are done with En:Vision (Perkin Elmer), at Excitation 531 nm/Emission 595 nm.

[3] = target: T3, aggregated Aβ40 (synthetic) (Homo sapiens, UniProt P05067); assay: Thiazine-red fluorescence displacement assay on aggregated Aβ40; settings: displacement of Thiazin-red at the high affinity binding site; compound 0.3 nM to 10000 nM; 30 min room temperature; average of different experiments; read-out: aggr. Aβ40 IC50
T3 construct: Id; No. 4; host or cells: synthetic peptide
T3 sequence (P05067 672-711): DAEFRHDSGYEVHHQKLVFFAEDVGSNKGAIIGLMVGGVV
Method: as §1

Row | SMILES | IC50 [1] [µM] | IC50 [2] [µM] | IC50 [3] [µM]
1 | CNc1ccc(-c2nc3ccc(O)cc3s2)cn1 [AZD2184] | > 10 | 9.8 | > 10
2 | CNc1ccc(-c2ccc3ccccc3n2)cc1 [BF-158] | > 10 | > 10 | > 10
3 | CN(C)c1ccc(C(=C2C=CC(=[N+](C)C)C=C2)c2ccc(N(C)C)cc2)cc1 [Crystal Violet] | 1.72 | 1.55 | 1.28
4 | CC(=C(C#N)C#N)c1ccc2cc(N(C)CCF)ccc2c1 [FDDNP] | 1.18 | 1.64 | 1.47
5 | CN(C)c1ccc(-c2cn3cc(I)ccc3n2)cc1 [IMPY] | 5.7 | 2.71 | 
6 | CNc1ccc(-c2nc3ccc(O)cc3s2)cc1 [PIB] | 7.02 | 3.26 | 

Compounds with a lower IC50 [1], results first:

Row | IC50 [1] [µM] | IC50 [2] [µM] | IC50 [3] [µM] | SMILES
7 | 0.0363 | 0.0184 | 0.0784 | O=C(O)c1cc(/C=C/c2ccc(/C=C/c3ccc(O)c(C(=O)O)c3)c(Br)c2)ccc1O [BSB]
8 | 0.0044 | 0.0054 | 0.0136 | Nc1c(/N=N/c2ccc(-c3ccc(/N=N/c4cc(S(=O)(=O)O)c5ccccc5c4N)cc3)cc2)cc(S(=O)(=O)O)c2ccccc12 [Congo Red]
9 | 0.0076 | 0.001 | 0.0888 | Cc1cc(-c2ccc(/N=N/c3ccc4c(S(=O)(=O)O)cc(S(=O)(=O)O)c(N)c4c3O)c(C)c2)ccc1/N=N/c1ccc2c(S(=O)(=O)O)cc(S(=O)(=O)O)c(N)c2c1O [Evans Blue]
10 | 0.239 | 0.494 | 0.307 | COc1cc(/C=C/c2ccc(O)cc2)ccc1/C=C/c1ccc(O)cc1 [MeXO4]
